Measurements as given in patent publication US20160015725A1, “METHODS OF CONTROLLING TUMOR BIOENERGETICS NETWORKS” (THE WISTAR INSTITUTE OF ANATOMY AND BIOLOGY, priority 2012, published 2016).

Tests used:
[1] = tested on: FF2508 or MRC5 normal primary human fibroblasts; assay: ATP production in normal fibroblasts; format: cell-based
Description: (§1) Intracellular ATP concentrations were measured by the luciferin—luciferase method using an ATP measuring kit (Biochain). The ATP concentration in each extract was measured with a microplate luminometer (Beckman Coulter) against standard ATP solutions used as reference. In some experiments, PC3 or LN229 cells were preincubated with sodium pyruvate for 7 h in the presence of vehicle or Gamitrinib before determination of ATP production.

LN229 cells [2] = assay: Glucose utilization; format: cell-based, human; conditions: tumor cells
Description: (§2) Glucose concentrations in cell culture media were determined using a Glucose kit (Sigma-Aldrich). Briefly, 2×10^6 cells were seeded in 10 cm2 tissue culture dishes for 48 h, mixed with DMEM in the presence of Gamitrinib or 17-AAG (0-20 μM) for additional 4 h, and 200 μl aliquots of culture medium were incubated with 1 ml assay mixture, containing 1.5 mM NAD, 1 mM ATP, 1.0 U/ml Hexokinase, and 1.0 U/ml G6PDH. The glucose concentration under the various conditions was determined by measuring the amount of reduced NAD to NADH by G6PDH, and quantified spectrophotometrically at 340 nm wavelength. Extracellular lactate was measured by a colorometric assay kit (Abcam). Culture media from LN229 cells was replaced with DMEM containing vehicle (DMSO) or Gamitrinib (5 μM) for 5 h. Changes in lactate concentrations were measured by analysis of lactate-dependent conversion of NADP to NADPH in the presence of excess lactate dehydrogenase (LDH), and quantified by absorbance at 450 nm. All assays were performed at 25° C. under conditions of linear lactate-limited NADPH formation.

LN229 cells [3] = assay: Extracellular lactate; format: cell-based, human; conditions: tumor cells
Description: as §2

LN229 cells [4] = assay: Oxygen consumption, fluorimetric assay; format: cell-based, human; conditions: tumor cells
Description: Treated tumor cells were analyzed using a fluorescence oxygen sensitive probe-based oxygen measuring kit (Luxcel Bioscience). For these experiments, LN229 cells were plated at increasing cell density (10-60×10^4/ml) on black body, clear bottom 96-well plates. The culture medium was replaced with 150 μl of phenol free DMEM containing 10% fetal bovine serum in the presence of 17-AAG or Gamitrinib (10 μM). Cells were further incubated with an oxygen-sensing probe (10 pmol/well), and 100 μl of heavy mineral oil was added to each well to seal the samples from ambient oxygen. After a 2 h incubation at 37° C., oxygen consumption was determined by quantifying the probe fluorescence signal in each well using a plate reader (Beckman Coulter) with excitation and emission wavelengths at 370 nm and 625 nm, respectively.

[5] = tested on: FF2508 or MRC5 primary human fibroblasts; assay: AMPK activation in normal fibroblasts; format: cell-based
Description: (§3) For Western blotting, protein lysates were prepared from the different cell types in RIPA Buffer (150 mM NaCl, 1.0% Triton X-100, 0.5% sodium deoxycholate, 0.1% SDS, 50 mM Tris, pH 8.0) containing EDTA-free Protease Inhibitor Cocktail (Roche) and Phosphatase Inhibitor Cocktail 2 and 3 (Sigma Aldrich). Equal amounts of protein lysates were separated by SDS gel electrophoresis, transferred to PVDF membranes and incubated with primary antibodies of various specificities. Protein bands were detected by chemiluminescence.

NIH3T3 fibroblasts = assay: ATP production and AMPK/mTORC1 phosphorylation in non-transformed cells; format: cell-based
Description: as §3, §1

tumor cells = assay: ER UPR markers (Western blotting, Xbp1 splicing, RT-qPCR); format: cell-based, human
[6] = tested on: V600E mutant BRAF melanoma cells; assay: AMPK and autophagy signaling in mutant BRAF melanoma cells; format: cell-based, human
Excerpt: Human glioblastoma LN229, prostate adenocarcinoma PC3 or LNCaP cells, or normal NIH3T3 fibroblasts were obtained from the American Tissue Culture Collection (ATCC, Manassas, Va.), and maintained in culture according to the supplier's specifications. The following wild type (WT) BRAF N-Ras mutant melanoma cells WM852 and WM1366, and melanoma cells carrying a V600E activating mutation in the BRAF oncogene, 451Lu, Me11617 and WM983B were used in this study. WT or CypD knockout Mouse Embryonic Fibroblasts (MEFs, CypD−/−) were characterized earlier 40. In some experiments, CypD−/− MEFs were stably transfected with control plasmid, WT CypD or peptidyl prolyl isomerase (PPIase)-deficient H168Q CypD mutant cDNA, and analyzed for differential recruitment of HK-II to mitochondrial or cytosolic fractions.
as §3
Samples were imaged using a Leica TCS SP2 confocal microscope. For determination of autophagy, cells under the various conditions tested were harvested after 12 h, and analyzed with an antibody to […] (LC3) by Western blotting.

BRAF WT melanoma cells = assay: Melanoma cell viability by MTT, BRAF WT; format: cell-based, human
Description: Various cell types were seeded in triplicate onto 96-well plates at 4×10^3 cells/well, treated with vehicle, Gamitrinib or 17-AAG (0-20 μM) for 12 h, and analyzed for changes in metabolic activity by an MTT assay. For determination of apoptosis, LN229 cells ([…]) were labeled for annexin V and propidium iodide (PI) (BD Biosciences), and analyzed by multiparametric flow cytometry (BD).

[7] = tested on: mutant BRAF melanoma cells; assay: 3D organotypic spheroids, mutant BRAF; format: cell-based, human; conditions: collagen-embedded, 72 h
Description: For analysis of tumor cell survival in 3D organotypic cultures, melanoma spheroids were prepared as previously described. Briefly, 50 μl aliquots of the various melanoma cell types (5×10^4 cells/ml) were seeded onto 96-well plates coated with 1.5% agar (Difco, Sparks, Md.) in PBS. Spheroids were allowed to form for 72 h and then embedded in 100 μl of bovine collagen type I (Organogenesis, Canton, Mass.). Spheroids were overlaid with 100 μl of Tu2% growth medium and treated with inhibitors for 72 hours. Quantification of live vs. dead cells under the various conditions tested was performed by staining the melanoma spheroids after 72 h of treatment with calcein-AM (live) and Topro-3 (dead) (Invitrogen) for 1 h (data not shown).

With `CO[C@H]1/C=C\C=C(/C)C(=O)NC2=CC(=O)C(NCCCCCC[P+](c3ccccc3)(c3ccccc3)c3ccccc3)=C(C[C@@H](C)C[C@H](OC)[C@H](O)[C@@H](C)/C=C(\C)[C@@H]1OC(N)=O)C2=O` [Gamitrinib] the ATP production [1] was “did not change ATP production”, the glucose utilization (LN229 cells [2]) was “reduced glucose utilization” and the extracellular lactate levels (LN229 cells [3]) was “reduced”. For the same molecule, the oxygen consumption (LN229 cells [4]) was “reduced”, the AMPK activation [5] was “did not activate AMPK” and the “ATP production, AMPK or mTORC1 phosphorylation” value (NIH3T3 fibroblasts) was “did not affect ATP production, or AMPK or mTORC1 phosphorylation”. For the same molecule, the “Grp78, CHOP or C/EBPβ expression, combined with 2-DG” value (tumor cells; Gamitrinib combined with 2-DG) was “translational suppression of Grp78, CHOP or C/EBPβ”, the “mRNA expression of CHOP, C/EBPβ and Grp78” value (tumor cells; quantitative PCR) was “time-dependent upregulation of ER UPR markers, CHOP, C/EBPβ and Grp78” and the “C/EBPβ and CHOP expression” value (tumor cells; tumor cells) was “induction of transcription factors, CCAAT-enhancer binding protein (C/EBPβ) and C/EBP homology protein (CHOP)”. For the same molecule, the Grp78 expression (tumor cells; tumor cells) was “upregulation of the ER chaperone, Grp78”, the “Xbp1 mRNA splicing” value (tumor cells; tumor cells) was “de novo mRNA splicing, i.e. activation, of its target, X-Box Protein-1, Xbp1” and the eIF2α phosphorylation (tumor cells; tumor cells) was “transient phosphorylation of PERK-regulated eIF2α”. The “time to induction of ER UPR” value (tumor cells; tumor cells) was ≤ 1 h, the IRE-1 expression (tumor cells; within 1 h) was “increased expression of Inositol-Requiring-1 (IRE-1) kinase” and the autophagy ([6]; BRAF mutant cells) was “did not adaptively increase autophagy”. For the same molecule, the AMPK activation ([6]; BRAF mutant melanoma cells) was “failed to activate AMPK”, the IC50 (BRAF WT melanoma cells) was 6 ± 1.4 µM and the “cell killing in 3D spheroids” value [7] was “efficiently killed”. For the same molecule, the “concentrations that killed cells in 3D spheroids” value [7] was 1 to 3 µM.
